Assay results taken from patent US10689306B2, “Fertilizer composition and methods of making and using same” (SABIC GLOBAL TECHNOLOGIES B.V., priority 2015, dated 2020).

Assays:
[1] = Nitrogen loss after 17 days of exposure to Upland Crowley Soil (IFDC)
Description: The nitrogen volatilization was measured in different soils for several samples and compared to products on the market, such as Agrotain®, ESN®, and SuperU®. The samples were tested in Greenville soil, Crowley soil, and Brownfield Soil.
Crowley soil consists of very deep, somewhat poorly drained, very slowly permeable soils that formed in clayey fluviomarine deposits of the Pleistocene age. The soil exist in nearly level to very gently sloping soils and occur on flat coastal plains terraces. The slope is dominantly less than 1 percent but ranges to up to 3 percent. The mean annual precipitation is about 1549 mm (61 in), and the mean annual air temperature is about 20 degrees c. (68 degrees F.), where the soil is found. The soil is fine, smectitic, and thermic Typic Albaqualfs.

[2] = hot climatic region; cited from earlier work
[3] = cited from earlier work
[4] = Thermal stability of NBTPT at urea melt temperature by HPLC; assay type: physicochemical; conditions: 133-135° C., over time
Description: The percentage of intact NBTPT in the sample is shown in each chromatogram.
Certain fertilizer additives can be unstable and decompose at elevated temperatures. In a conventional manufacturing process, a fertilizer additive is directly exposed to the temperature of a urea melt, which is typically 133-135° C., during the granulation process. […] Accordingly, at least a portion of NBTPT is lost by using conventional methods.
The fertilizers and methods disclosed herein protect the fertilizer additive from being directly exposed to the temperature of a urea melt during the manufacturing process. The fertilizer core particle of the fertilizer comprises a binder, which protects the fertilizer additive from being directly exposed to the urea melt and the temperature of the urea melt. As such, the fertilizer additive is protected from the elevated temperature and is less likely to decompose. […] Thus, the fertilizers and methods disclosed herein prevent loss of a fertilizer additive, such as, for example, without limitation, an inhibitor, for example NBTPT, during the manufacturing process.
The thermal stability of neat NBTPT and NBTPT contained within a core, as disclosed herein, can be determined by HPLC. […] (133-135° C. is the typical temperature range of a urea melt) and can continuously be analyzed by HPLC every 5 min, until data for 30 min was collected. […]

SMILES: NC(N)=O [Urea, urea]
- Cumulative Nitrogen Loss (mg) by 17 Days ([1]; 17 days of exposure to Upland Crowley Soil): 299.08 mg
- % Urea ([1]; nitrogen loss relative to urea (100), 17 days, Upland Crowley Soil): 100%
- % Reduction in Nitrogen Loss ([1]; versus urea, 17 days, Upland Crowley Soil): 0%

SMILES: N#CN=C(N)N [DCD, dicyandiamide]
- thermal stability in the soil [2]: thermal instability

SMILES: CCCCNP(N)(N)=S [NBTPT, N-(n-butyl) thiophosphoric triamide]
- stability under acidic pH [3]: unstable
- thermal stability of neat NBTPT ([4]; neat, FIG. 13): decomposes
- thermal stability of NBTPT within a fertilizer core particle ([4]; within a core, FIG. 14): stable over time and does not decompose
